Assay results reported in patent US8916702B2 (priority 2012, dated 2014).

Test system: HCV pseudoparticles (genotype 1a HCV E1 and E2 envelope, H77C isolate)
Test: microbe, parasite or virus in culture
Assay type: cell-based
Conditions: Hepatitis C virus, Huh-7, 48 h, HCV pseudoparticle infection of Huh7 cells, luciferase 2 days after infection; average of duplicates

Row | Structure (SMILES) | EC50 [nM]
1 | COC(=O)[C@H](CNC(=O)C(=O)NCc1cccc(OC)c1)NC(=O)c1ccc(Nc2nc(NC3(c4ccc(Cl)cc4)CC3)nc(OCC(F)(F)F)n2)cc1 [Compound 1151] | 1.62
2 | O=C(NCC[C@H](NC(=O)c1ccc(Nc2nc(NC3(c4ccc(Cl)cc4)CC3)nc(OCC(F)(F)F)n2)cc1)C(=O)O)C(=O)NC1CCCC(O)C1 (stereo partly drawn) [Compound 1112] | 1.23

Same assay, conditions: Hepatitis C virus, Huh-7, 48 h, HCV pseudoparticles (genotype 1a, H77C) in Huh7 cells; average of duplicate; luciferase 2 days after infection

Row | Structure (SMILES) | EC50 [nM]
3 | C#Cc1ccc(NC(=O)C(=O)NC[C@H](NC(=O)c2ccc(Nc3nc(NC4(c5ccc(Cl)cc5)CC4)nc(OCC(F)(F)F)n3)cc2)C(=O)OC)cc1 [Compound 3100] | 0.27
4 | CC(C)(CNC(=O)C(N)=O)CNC(=O)c1ccc(Nc2nc(NC3(c4ccccc4)CC3)nc(OCC(F)(F)F)n2)cc1 [Compound 3244] | 0.07
5 | O=C(NCCCNC(=O)c1ccc(Nc2nc(NC3(c4ccc(Cl)cc4)CC3)nc(OCC(F)(F)F)n2)cc1)C(=O)Nc1cccc(F)c1 [Compound 3349] | 0.041
6 | O=C(NCC[C@H](NC(=O)c1ccc(Nc2nc(NC3(c4ccc(Cl)cc4)CC3)nc(OCC(F)(F)F)n2)cc1)C(=O)O)C(=O)Nc1ccc(-n2cnc(Cl)c2Cl)cc1 [Compound 3225] | 17
7 | CC(C)(CNC(=O)c1ccc(Nc2nc(NC3(c4ccc(Cl)cc4)CC3)nc(OCC(F)(F)F)n2)cc1)NC(=O)C(=O)NC1CCCCC1 [Compound 3436] | 0.081
8 | Cc1ccc(NC(=O)C(=O)N(C)CCCN(C)C(=O)c2ccc(Nc3nc(NC4(c5ccc(Cl)cc5)CC4)nc(OCC(F)(F)F)n3)cc2)cc1 [Compound 3406] | 1.91

Same assay, conditions: Hepatitis C virus, Huh-7, 48 h, HCV pseudoparticles, Huh7 cells, luciferase 2 days after infection; average of duplicates

Row | Structure (SMILES) | EC50 [nM]
9 | COC(=O)[C@H](CNC(=O)C(=O)Nc1ccc(C(F)(F)F)nc1)NC(=O)c1ccc(Nc2nc(NC3(c4ccc(Cl)cc4)CC3)nc(OCC(F)(F)F)n2)cc1 [Compound 3716] | 0.62

Same assay, conditions: Hepatitis C virus, Huh-7, 48 h, read-out: Activity (EC50 class), HCV pseudoparticle infection of Huh7 cells, luciferase 2 days after infection; EC50 expressed as class A/B

Row | Structure (SMILES) | EC50 [nM]
10 | COC(=O)[C@H](CCNC(=O)C(=O)NCC1CCCCC1)NC(=O)c1ccc(Nc2nc(NC3(c4ccc(Cl)cc4)CC3)nc(OCC(F)(F)F)n2)cc1 [Compound 1143] | 0.01 to 10
11 | O=C(NCC1CC1)C(=O)NCC1(CNC(=O)c2ccc(Nc3nc(NC4(c5ccc(Cl)cc5)CC4)nc(OCC(F)(F)F)n3)cc2)CC1 [Compound 1493] | 0.01 to 10
12 | COC(=O)[C@H](CNC(=O)C(=O)Nc1ccncc1)NC(=O)c1ccc(Nc2nc(NC3(c4ccc(Cl)cc4)CC3)nc(OCC(F)(F)F)n2)cc1 [Compound 1258] | 0.01 to 10
13 | COC(=O)[C@H](CNC(=O)C(=O)NCC1CCCCCC1)NC(=O)c1ccc(Nc2nc(NC3(c4ccc(Cl)cc4)CC3)nc(OCC(F)(F)F)n2)cc1 [Compound 1451] | 0.01 to 10
14 | COc1ccccc1CCNC(=O)C(=O)NCC[C@H](NC(=O)c1ccc(Nc2nc(NC3(c4ccc(Cl)cc4)CC3)nc(OCC(F)(F)F)n2)cc1)C(=O)O [Compound 1329] | 0.01 to 10
15 | CC(C)(C)C1CCC(NC(=O)C(=O)NC[C@H](NC(=O)c2ccc(Nc3nc(NC4(c5ccc(Cl)cc5)CC4)nc(OCC(F)(F)F)n3)cc2)C(=O)O)CC1 (stereo partly drawn) [Compound 1090] | 0.01 to 10
16 | O=C(NCC[C@H](NC(=O)c1ccc(Nc2nc(NC3(c4ccc(Cl)cc4)CC3)nc(OCC(F)(F)F)n2)cc1)C(=O)O)C(=O)NC1CCC(O)CC1 (stereo partly drawn) [Compound 1118] | 0.01 to 10
17 | C[C@@H]1[C@H]2C[C@H](C[C@H]1NC(=O)C(=O)NC[C@H](NC(=O)c1ccc(Nc3nc(NC4(c5ccc(Cl)cc5)CC4)nc(OCC(F)(F)F)n3)cc1)C(=O)O)C2(C)C [Compound 1105] | 0.01 to 10
18 | COc1ccccc1NC(=O)C(=O)NC[C@H](NC(=O)c1ccc(Nc2nc(NC3(c4ccc(Cl)cc4)CC3)nc(OCC(F)(F)F)n2)cc1)C(=O)O [Compound 1364] | 0.01 to 10
19 | COC(=O)[C@H](CNC(=O)C(=O)NCCc1ccccn1)NC(=O)c1ccc(Nc2nc(NC3(c4ccc(Cl)cc4)CC3)nc(OCC(F)(F)F)n2)cc1 [Compound 1282] | 0.01 to 10
20 | COC(=O)[C@H](CNC(=O)C(=O)NCc1cccc(OC)c1)NC(=O)c1ccc(Nc2nc(NC3(c4ccc(Cl)cc4)CC3)nc(OCC(F)(F)F)n2)cc1 [Compound 1151] | 0.01 to 10
21 | O=C(NCC[C@H](NC(=O)c1ccc(Nc2nc(NC3(c4ccc(Cl)cc4)CC3)nc(OCC(F)(F)F)n2)cc1)C(=O)O)C(=O)NC1CCCC(O)C1 (stereo partly drawn) [Compound 1112] | 0.01 to 10
22 | O=C(NCCc1c[nH]cn1)C(=O)NCC[C@H](NC(=O)c1ccc(Nc2nc(NC3(c4ccc(Cl)cc4)CC3)nc(OCC(F)(F)F)n2)cc1)C(=O)O [Compound 1339] | 0.01 to 10

Same assay, conditions: Hepatitis C virus, Huh-7, 48 h, read-out: Activity (EC50 class), HCV pseudoparticles, Huh7 cells, luciferase 2 days after infection; average of duplicates

Row | Structure (SMILES) | EC50 [nM]
23 | O=C(NCC[C@H](NC(=O)c1ccc(Nc2nc(NC3(c4ccc(Cl)cc4)CC3)nc(OCC(F)(F)F)n2)cc1)C(=O)O)C(=O)Nc1cccc(-n2ccnc2)c1 [Compound 3659] | 0.01 to 10
24 | O=C(NC[C@H](NC(=O)c1ccc(Nc2nc(NC3(c4ccc(Cl)cc4)CC3)nc(OCC(F)(F)F)n2)cc1)C(=O)Cl)C(=O)Nc1ccc(OCCN2CCCCC2)nc1 [Compound 3791] | 0.01 to 10
25 | O=C(NCC[C@H](NC(=O)c1ccc(Nc2nc(NC3(c4ccc(Cl)cc4)CC3)nc(OCC(F)(F)F)n2)cc1)C(=O)O)C(=O)Nc1ccc(N2CCCC2)nc1 [Compound 3645] | 0.01 to 10
26 | CC(C)(CNC(=O)C(=O)Nc1nc2cccnc2s1)CNC(=O)c1ccc(Nc2nc(NC3(c4ccc(Cl)cc4)CC3)nc(OCC(F)(F)F)n2)cc1 [Compound 3811] | 0.01 to 10
27 | COC(=O)[C@H](CNC(=O)C(=O)Nc1cccc(-c2ccc(Cl)cc2)c1)NC(=O)c1ccc(Nc2nc(NC3(c4ccc(Cl)cc4)CC3)nc(OCC(F)(F)F)n2)cc1 [Compound 3720] | 0.01 to 10
28 | COc1cc2nc(NC(=O)C(=O)NCC(C)(C)CNC(=O)c3ccc(Nc4nc(NC5(c6ccc(Cl)cc6)CC5)nc(OCC(F)(F)F)n4)cc3)sc2cc1OC [Compound 3665] | 0.01 to 10
29 | COC(=O)[C@H](CNC(=O)C(=O)Nc1ccc(C(F)(F)F)nc1)NC(=O)c1ccc(Nc2nc(NC3(c4ccc(Cl)cc4)CC3)nc(OCC(F)(F)F)n2)cc1 [Compound 3716] | 0.01 to 10
30 | Cc1nc(-c2cccc(NC(=O)C(=O)NCC[C@H](NC(=O)c3ccc(Nc4nc(NC5(c6ccc(Cl)cc6)CC5)nc(OCC(F)(F)F)n4)cc3)C(=O)O)c2)no1 [Compound 3654] | 0.01 to 10
31 | COC(=O)[C@H](CNC(=O)C(=O)Nc1cccc(Cc2ccccc2)c1)NC(=O)c1ccc(Nc2nc(NC3(c4ccc(Cl)cc4)CC3)nc(OCC(F)(F)F)n2)cc1 [Compound 3714] | 0.01 to 10
32 | O=C(NC[C@H](NC(=O)c1ccc(Nc2nc(NC3(c4ccc(Cl)cc4)CC3)nc(OCC(F)(F)F)n2)cc1)C(=O)Cl)C(=O)Nc1cccc(-n2cnnc2)c1 [Compound 3784] | 0.01 to 10
33 | O=C(NC[C@H](NC(=O)c1ccc(Nc2nc(NC3(c4ccc(Cl)cc4)CC3)nc(OCC(F)(F)F)n2)cc1)C(=O)O)C(=O)Nc1ccc(N2CCCC2)nc1 [Compound 3776] | 0.01 to 10
34 | CC(C)(C)c1cccc(NC(=O)C(=O)NC[C@H](NC(=O)c2ccc(Nc3nc(NC4(c5ccc(Cl)cc5)CC4)nc(OCC(F)(F)F)n3)cc2)C(=O)O)c1 [Compound 3760] | 0.01 to 10

Same assay, conditions: Hepatitis C virus, Huh-7, read-out: Activity (EC50 class), HCV pseudoparticles (genotype 1a, H77C) in Huh7 cells; EC50 expressed as class A/B

Row | Structure (SMILES) | EC50 [nM]
35 | Cc1ccc(NC(=O)C(=O)NCC(C)(C)CNC(=O)c2ccc(Nc3nc(NC4(c5ccc(Cl)cc5)CC4)nc(OCC(F)(F)F)n3)cc2)c(C)n1 [Compound 3073] | 0.01 to 10
36 | COC(=O)[C@H](CCNC(=O)C(=O)Nc1ccc(Cc2ccccc2)cc1)NC(=O)c1ccc(Nc2nc(NC3(c4ccc(Cl)cc4)CC3)nc(OCC(F)(F)F)n2)cc1 [Compound 3120] | 0.01 to 10
37 | Cc1ccc(NC(=O)C(=O)NCC(O)CNC(=O)c2ccc(Nc3nc(NC4(c5ccc(Cl)cc5)CC4)nc(OCC(F)(F)F)n3)cc2)cc1 (stereo not drawn) [Compound 3367] | 0.01 to 10
38 | C#Cc1ccc(NC(=O)C(=O)NC[C@H](NC(=O)c2ccc(Nc3nc(NC4(c5ccc(Cl)cc5)CC4)nc(OCC(F)(F)F)n3)cc2)C(=O)OC)cc1 [Compound 3100] | 0.01 to 10
39 | COC(=O)[C@H](CCNC(=O)C(=O)Nc1ccc(-c2csc(C)n2)cc1)NC(=O)c1ccc(Nc2nc(NC3(c4ccc(Cl)cc4)CC3)nc(OCC(F)(F)F)n2)cc1 [Compound 3307] | 0.01 to 10
40 | CC(C)(CNC(=O)C(N)=O)CNC(=O)c1ccc(Nc2nc(NC3(c4ccccc4)CC3)nc(OCC(F)(F)F)n2)cc1 [Compound 3244] | 0.01 to 10
41 | COC(=O)[C@H](CNC(=O)C(=O)Nc1ccc(CN2CCCCC2)cc1)NC(=O)c1ccc(Nc2nc(NC3(c4ccc(Cl)cc4)CC3)nc(OCC(F)(F)F)n2)cc1 [Compound 3196] | 0.01 to 10
42 | CN(CCCNC(=O)c1ccc(Nc2nc(NC3(c4ccc(Cl)cc4)CC3)nc(OCC(F)(F)F)n2)cc1)C(=O)C(=O)Nc1cc(F)cc(F)c1 [Compound 3451] | 0.01 to 10
43 | Cc1cc(NC(=O)C(=O)NCCCCNC(=O)c2ccc(Nc3nc(NC4(c5ccc(Cl)cc5)CC4)nc(OCC(F)(F)F)n3)cc2)no1 [Compound 3394] | 0.01 to 10
44 | O=C(NCCCNC(=O)c1ccc(Nc2nc(NC3(c4ccc(Cl)cc4)CC3)nc(OCC(F)(F)F)n2)cc1)C(=O)Nc1cccc(F)c1 [Compound 3349] | 0.01 to 10
45 | Cn1ccc(NC(=O)C(=O)NCC(C)(C)CNC(=O)c2ccc(Nc3nc(NC4(c5ccc(Cl)cc5)CC4)nc(OCC(F)(F)F)n3)cc2)n1 [Compound 3023] | 0.01 to 10
46 | O=C(NCC[C@H](NC(=O)c1ccc(Nc2nc(NC3(c4ccc(Cl)cc4)CC3)nc(OCC(F)(F)F)n2)cc1)C(=O)O)C(=O)Nc1ccc(-n2cnc(Cl)c2Cl)cc1 [Compound 3225] | 10 to 1000
47 | Cc1ccc(NC(=O)C(=O)N(C)CCCN(C)C(=O)c2ccc(Nc3nc(NC4(c5ccc(Cl)cc5)CC4)nc(OCC(F)(F)F)n3)cc2)cc1Cl [Compound 3434] | 0.01 to 10
48 | O=C(NCC[C@H](NC(=O)c1ccc(Nc2nc(NC3(c4ccc(Cl)cc4)CC3)nc(OCC(F)(F)F)n2)cc1)C(=O)O)C(=O)Nc1ccc(N2CCN(Cc3ccccc3)CC2)cc1 [Compound 3232] | 0.01 to 10
49 | Cc1nc(-c2ccc(NC(=O)C(=O)NCCC(NC(=O)c3ccc(Nc4nc(NC5(c6ccc(Cl)cc6)CC5)nc(OCC(F)(F)F)n4)cc3)C(=O)O)cc2)cs1 (stereo not drawn) [Compound 3528] | 0.01 to 10
50 | COC(=O)[C@H](CNC(=O)C(=O)Nc1ccc(-c2ccccc2)cc1)NC(=O)c1ccc(Nc2nc(NC3(c4ccc(Cl)cc4)CC3)nc(OCC(F)(F)F)n2)cc1 [Compound 3083] | 0.01 to 10
51 | CC(C)(CNC(=O)c1ccc(Nc2nc(NC3(c4ccc(Cl)cc4)CC3)nc(OCC(F)(F)F)n2)cc1)NC(=O)C(=O)NC1CCCCC1 [Compound 3436] | 0.01 to 10
52 | Cc1ccc(NC(=O)C(=O)NCC(C)(C)CNC(=O)c2ccc(Nc3nc(NC4(c5ccc(Cl)cc5)CC4)nc(OCC(F)(F)F)n3)cc2)c(C(F)(F)F)c1 [Compound 3455] | 0.01 to 10
53 | CN(CCCN(C)C(=O)c1ccc(Nc2nc(NC3(c4ccc(Cl)cc4)CC3)nc(OCC(F)(F)F)n2)cc1)C(=O)C(N)=O [Compound 3411] | 0.01 to 10
54 | O=C(NCCNC(=O)c1ccc(Nc2nc(NC3(c4ccc(Cl)cc4)CC3)nc(OCC(F)(F)F)n2)cc1)C(=O)Nc1cccc(F)c1 [Compound 3369] | 0.01 to 10
55 | Cc1ccc(NC(=O)C(=O)N(C)CCCN(C)C(=O)c2ccc(Nc3nc(NC4(c5ccc(Cl)cc5)CC4)nc(OCC(F)(F)F)n3)cc2)cc1 [Compound 3406] | 0.01 to 10
56 | CC(C)(CNC(=O)C(=O)NCc1ccccc1-c1ccccc1)CNC(=O)c1ccc(Nc2nc(NC3(c4ccc(Cl)cc4)CC3)nc(OCC(F)(F)F)n2)cc1 [Compound 3035] | 0.01 to 10
57 | O=C(Nc1nccs1)C(=O)N1CCCC(CNC(=O)c2ccc(Nc3nc(NC4(c5ccc(Cl)cc5)CC4)nc(OCC(F)(F)F)n3)cc2)C1 (stereo not drawn) [Compound 3487] | 0.01 to 10
